Experiments:
B16 [1] = assay: Inhibition of alpha-MSH-induced melanin production in mouse B16 cells at 10 uM after 3 days; assay type: functional; settings: B16, 72 h
B16 [2] = assay: Inhibition of alpha-MSH-induced melanin production in mouse B16 cells after 3 days; assay type: functional, cell-based; settings: B16, 72 h

IC50 (B16 [2])	SMILES	inhibition at 10 µM (B16 [1])
0.84 µM	C/C(=N\NC(N)=S)c1ccc(C)cc1	> 100%
2.6 µM	CC/C(=N\NC(N)=S)c1ccc(C)cc1	> 100%
3.7 µM	CC(C)/C(=N\NC(N)=S)c1ccccc1	96%
2 µM	CC/C(=N\NC(=S)NC)c1ccc(C)cc1	> 100%
1.9 µM	CCNC(=S)N/N=C(\CC)c1ccc(C)cc1	> 100%
0.79 µM	CC/C(=N\NC(=S)Nc1ccccc1)c1ccc(C)cc1	> 100%
> 30 µM	CC(NNC(N)=S)c1ccccc1 (centres undefined)	36%
8.1 µM	Cc1ccc(C(C)NNC(N)=S)cc1 (centres undefined)	61%
3.9 µM	CCC(NNC(N)=S)c1ccc(C)cc1 (centres undefined)	> 100%
2.3 µM	NC(=S)N/N=C1\CCCc2ccccc21	> 100%
6.1 µM	C/C(=N\NC(N)=S)c1cccs1	82%
2.7 µM	COc1ccc(/C(C)=N/NC(N)=S)cc1	> 100%
2 µM	CC/C(=N\N=C(\N)S)c1ccc(Br)cc1	> 100%
4 µM	CC/C(=N\N=C(\N)S)c1ccc(OC)cc1	> 100%
2.9 µM	CC/C(=N\N=C(\N)S)c1ccc(Cl)cc1	> 100%
4.9 µM	NC(=S)NN=C(c1ccccc1)c1ccccc1 [BENZOPHENONE-THIOSEMICARBAZONE]	97%
2.3 µM	C/C(=N\N=C(/N)S)c1ccccc1 [PHENYL(METHYL)THIOSEMICARBAZONE]	> 100%

Source: ChEMBL document CHEMBL1777713, “Ketonethiosemicarbazones: structure-activity relationships for their melanogenesis inhibition” (Bioorg Med Chem Lett, 2011)
